Results taken from paper PMC10010340, “The Wnt Pathway Inhibitor RXC004 Blocks Tumor Growth and Reverses Immune Evasion in Wnt Ligand–dependent Cancer Models” (Cancer Research Communications, 2022).

What was measured:
[1] = test system: colorectal cancer xenografts with RSPO3 translocations; set-up: method as in PMID 26257057; settings: cited from earlier work
HPAF-II cells = assay: In vitro glucose uptake; type: cell-based, human; settings: Latrunculin A 500 nmol/L, 48 hours
Method: (§1) SNU-1411, HPAF-II, and HCT116 cells were treated in vitro for 48 hours with RXC004 (100 nmol/L), Latrunculin A (Abcam #ab144290; 500 nmol/L), or DMSO prior to analysis using the Glucose Uptake Glo Assay Kit (Promega #J1341). The ATPlite assay was used to control for cell viability, confirming RXC004 has no effect on proliferation at this 48 hours timepoint.

SNU-1411 cells = assay: In vitro glucose uptake; type: cell-based, human; settings: SNU-1411, Latrunculin A 500 nmol/L, 48 hours
Method: as §1

HCT116 cells = assay: In vitro glucose uptake; type: cell-based, human; settings: HCT116, Latrunculin A 500 nmol/L, 48 hours
Method: as §1

Compound	duration of tumor regrowth suppression after withdrawal of treatment [1]	glucose uptake (HPAF-II cells)	glucose uptake (SNU-1411 cells)	glucose uptake (HCT116 cells)
Cn1c(=O)c2c(ncn2CC(=O)Nc2ccc(-c3ccccc3)nn2)n(C)c1=O [ETC-159]	up to 6 weeks			
C/C1=C/C(=O)O[C@@H]2C[C@@H](CC[C@H](C)/C=C\C=C\CC1)O[C@@](O)([C@@H]1CSC(=O)N1)C2 [Latrunculin A, reference compound]		blocked glucose uptake	blocked glucose uptake	blocked glucose uptake
